Assay results from patent US20230116972A1, “CD38 MODULATORS AND METHODS OF USE THEREOF” (Cytokinetics, Inc., priority 2021, published 2023).
pIC50: −log10 of the molar value.

Tests used:
human CD38 = target: T1, human CD38 (Homo sapiens, UniProt P28907); test: human recombinant CD38 enzyme assay (hydrolysis of NAD+); assay type: biochemical; settings: human recombinant CD38, 0.4 nM enzyme, 62.5 μM NAD+; read-out: hCD38 BioChem IC50
T1 sequence (P28907 1-300): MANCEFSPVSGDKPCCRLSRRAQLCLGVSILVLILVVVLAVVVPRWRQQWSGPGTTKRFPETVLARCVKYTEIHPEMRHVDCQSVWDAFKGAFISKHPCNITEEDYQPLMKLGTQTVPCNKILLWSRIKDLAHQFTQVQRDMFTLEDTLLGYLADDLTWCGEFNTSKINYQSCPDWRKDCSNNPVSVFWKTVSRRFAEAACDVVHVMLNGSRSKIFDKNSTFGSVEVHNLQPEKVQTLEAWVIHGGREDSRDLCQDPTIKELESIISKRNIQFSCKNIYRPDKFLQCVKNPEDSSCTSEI
Description: (§1) Compounds described herein were assayed for their ability to inhibit the hydrolysis of NAD+ by the protein CD38. The human and mouse recombinant enzyme assays measure the inhibition of the enzyme activity by compounds using recombinant enzymes and substrates in a buffered cell-free system. The assay conditions closely mimic cellular environments. Dose responses were measured using an assay to detect the hydrolysis of NAD+. All experiments were performed in the 384-well format. […] Enzyme reactions were initiated with the addition of 10 μL of a solution containing NAD+ substrate. Subsequent detection of remaining NAD+ was determined by first converting NAD+ to NADH using alcohol dehydrogenase, then using the resulting NADH to reduce resazurine to the fluorescent product resorufin. […] Following an incubation of 60 min at ambient temperature, 10 μL of 120 mM ethanol+20 U/ml alcohol dehydrogenase+30 mM semicarbazide+0.03 mM CD38 inhibitor in 50 mM HEPES, pH 7.5, 0.2 mg/ml BSA, was added and incubated at ambient temperature for 15 min. Then 10 μl 0.32 mM NaOH was added to stop the ADH reaction (plates incubated at ambient temperature for 15 min), followed by 30 μL of 0.05 mM resazurine+1000 mU/ml Diaphorase in 200 mM Tris-HCl, pH 7.7 for 15 min at ambient temperature. The plates were read for fluorescence (Excitation/Emission=540 nm/590 nm) using an EnVision plate reader. […] Note that, in Table 4, the “Compound No” corresponds to the compound numbers in Table 1.

mouse CD38 = target: T2, mouse CD38 (Mus musculus, UniProt P56528); test: mouse recombinant CD38 enzyme assay (hydrolysis of NAD+); assay type: biochemical; settings: read-out: mCD38 BioChem IC50
T2 sequence (P56528 1-304): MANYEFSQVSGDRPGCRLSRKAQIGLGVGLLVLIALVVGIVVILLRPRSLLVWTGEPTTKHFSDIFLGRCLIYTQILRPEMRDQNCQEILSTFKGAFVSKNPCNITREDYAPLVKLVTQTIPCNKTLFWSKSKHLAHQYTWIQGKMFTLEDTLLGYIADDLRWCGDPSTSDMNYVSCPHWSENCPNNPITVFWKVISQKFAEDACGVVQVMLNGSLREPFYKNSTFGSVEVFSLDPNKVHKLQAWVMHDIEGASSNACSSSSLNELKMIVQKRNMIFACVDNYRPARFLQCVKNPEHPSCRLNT
Description: as §1

pIC50 (human CD38)	pIC50 (mouse CD38)	Structure (SMILES)
5.76	6.87	CO[C@H]1CC[C@H](NC(=O)c2cc(C)cc(-c3cncs3)n2)CC1 [Compound 133, N-(4-methoxycyclohexyl)-4-methyl-6-(thiazol-5-yl)picolinamide]
6.89	7.55	O=C(N[C@H]1CC[C@H](O)CC1)c1nc(C(F)F)cc(-n2ccnc2)n1 [Compound 349, 4-(difluoromethyl)-N-((1r,4r)-4-hydroxycyclohexyl)-6-(1H-imidazol-1-yl)pyrimidine-2-carboxamide]
5.77	6.90	Cn1cncc1-c1ccnc(C(=O)N[C@H]2CC[C@@](O)(c3ccccc3)CC2)n1 [Compound 253, N-((1r,4r)-4-hydroxy-4-phenylcyclohexyl)-4-(1-methyl-1H-imidazol-5-yl)pyrimidine-2-carboxamide]
6.96	7.52	CO[C@H]1CC[C@H](NC(=O)c2nc(C(F)F)cc(-n3ccnc3)n2)CC1 [Compound 346, 4-(difluoromethyl)-6-(1H-imidazol-1-yl)-N-((1r,4r)-4-methoxycyclohexyl)pyrimidine-2-carboxamide]
6.67	7.34	CO[C@H]1CC[C@H](NC(=O)c2cc(C(C)C)nc(-n3ccnc3)n2)CC1 [Compound 167, 2-(1H-imidazol-1-yl)-6-isopropyl-N-((1r,4r)-4-methoxycyclohexyl)pyrimidine-4-carboxamide]
7.60	7.69	COCCO[C@@H]1CC[C@@H](NC(=O)c2cc(C3CCOCC3)nc(-c3cncn3C)n2)C1 [Compound 352, N-((1R,3R)-3-(2-methoxyethoxy)cyclopentyl)-2-(1-methyl-1H-imidazol-5-yl)-6-(tetrahydro-2H-pyran-4-yl)pyrimidine-4-carboxamide]
8.37	8.00	COc1ccc(NC(=O)c2nccc(-c3cncn3C)n2)cn1 [Compound 356, N-(6-methoxypyridin-3-yl)-4-(1-methyl-1H-imidazol-5-yl)pyrimidine-2-carboxamide]
6.21	6.70	CCO[C@H]1C[C@H](NC(=O)c2nccc(-n3ccnc3)n2)C1 [Compound 301, N-((1r,3r)-3-ethoxycyclobutyl)-4-(1H-imidazol-1-yl)pyrimidine-2-carboxamide]
7.96	8.82	Cn1cncc1-c1nc(C(=O)Nc2ccc(C(C)(C)O)nc2)cc(C2CCOCC2)n1 [Compound 332, N-(6-(2-hydroxypropan-2-yl)pyridin-3-yl)-2-(1-methyl-1H-imidazol-5-yl)-6-(tetrahydro-2H-pyran-4-yl)pyrimidine-4-carboxamide]
7.53	7.71	Cn1cncc1-c1ncc(Cl)c(C(=O)N[C@H]2CC[C@H](OC(F)(F)F)CC2)n1 [Compound 325, 5-chloro-2-(1-methyl-1H-imidazol-5-yl)-N-((1r,4r)-4-(trifluoromethoxy)cyclohexyl)pyrimidine-4-carboxamide]
7.54	7.87	Cc1cnc(-c2cncn2C)nc1C(=O)N[C@H]1CC[C@H](OC(F)F)CC1 [Compound 335, N-((1r,4r)-4-(difluoromethoxy)cyclohexyl)-5-methyl-2-(1-methyl-1H-imidazol-5-yl)pyrimidine-4-carboxamide]
5.71	6.18	CC(C)(C)c1cc(-n2ccnc2)nc(C(=O)Nc2ccc(C(F)F)nc2)n1 [Compound 188, 4-(tert-butyl)-N-(6-(difluoromethyl)pyridin-3-yl)-6-(1H-imidazol-1-yl)pyrimidine-2-carboxamide]
8.60	9.00	Cn1cncc1-c1nc(C(=O)Nc2ccc(C(F)F)nc2)cc(C2CC3(COC3)C2)n1 [Compound 348, N-(6-(difluoromethyl)pyridin-3-yl)-2-(1-methyl-1H-imidazol-5-yl)-6-(2-oxaspiro[3.3]heptan-6-yl)pyrimidine-4-carboxamide]
6.02	6.27	COc1cc(-n2ccnc2)nc(C(=O)N[C@H]2CC[C@H](OC)CC2)n1 [Compound 208, 4-(1H-imidazol-1-yl)-6-methoxy-N-((1r,4r)-4-methoxycyclohexyl)pyrimidine-2-carboxamide]
7.57	8.40	CO[C@H]1CC[C@H](NC(=O)c2cc(C3CC3)nc(-n3ccnc3)n2)CC1 [Compound 160, 6-cyclopropyl-2-(1H-imidazol-1-yl)-N-((1r,4r)-4-methoxycyclohexyl)pyrimidine-4-carboxamide]
5.87	6.65	O=C(N[C@H]1C[C@@H](c2ccc(C(F)(F)F)nc2)C1)c1nccc(-n2ccnc2)n1 [Compound 272, 4-(1H-imidazol-1-yl)-N-((1s,3s)-3-(6-(trifluoromethyl)pyridin-3-yl)cyclobutyl)pyrimidine-2-carboxamide]
8.15	8.70	Cn1cncc1-c1nc(C(=O)Nc2ccc(C(F)F)nc2)cc(C2CCC2)n1 [Compound 183, 6-cyclobutyl-N-(6-(difluoromethyl)pyridin-3-yl)-2-(1-methyl-1H-imidazol-5-yl)pyrimidine-4-carboxamide]
5.74	6.63	O=C(NC1CN(c2ccccc2)C1)c1nccc(-n2ccnc2)n1 [Compound 262, 4-(1H-imidazol-1-yl)-N-(1-phenylazetidin-3-yl)pyrimidine-2-carboxamide]
8.74	8.82	Cn1cncc1-c1ncc(F)c(C(=O)Nc2ccc(OC(F)F)nc2)n1 [Compound 338, N-(6-(difluoromethoxy)pyridin-3-yl)-5-fluoro-2-(1-methyl-1H-imidazol-5-yl)pyrimidine-4-carboxamide]
8.00	8.30	O=C(Nc1ccc(C(F)F)nc1)c1cc(C2CCC2)nc(-n2ccnc2)n1 [Compound 186, 6-cyclobutyl-N-(6-(difluoromethyl)pyridin-3-yl)-2-(1H-imidazol-1-yl)pyrimidine-4-carboxamide]
6.04	5.50	NC(=O)c1cn(-c2cccc(C(=O)Nc3ccc(C(F)(F)F)nc3)n2)cn1 [Compound 76, 6-(4-carbamoyl-1H-imidazol-1-yl)-N-(6-(trifluoromethyl)pyridin-3-yl)picolinamide]
8.30	8.01	Cn1cncc1-c1ccnc(C(=O)Nc2ccc(OC3CCC(F)(F)CC3)nc2)n1 [Compound 330, N-(6-((4,4-difluorocyclohexyl)oxy)pyridin-3-yl)-4-(1-methyl-1H-imidazol-5-yl)pyrimidine-2-carboxamide]
6.30	6.37	Cn1cncc1-c1cc(C(C)(C)C)nc(C(=O)Nc2ccc(C(F)(F)F)nc2)n1 [Compound 190, 4-(tert-butyl)-6-(1-methyl-1H-imidazol-5-yl)-N-(6-(trifluoromethyl)pyridin-3-yl)pyrimidine-2-carboxamide]
7.70	8.54	Cn1cncc1-c1nc(C(=O)Nc2ccc(OC(F)F)nc2)cc(C2CCC(F)(F)CC2)n1 [Compound 342, 6-(4,4-difluorocyclohexyl)-N-(6-(difluoromethoxy)pyridin-3-yl)-2-(1-methyl-1H-imidazol-5-yl)pyrimidine-4-carboxamide]
6.31	7.20	Cn1cncc1-c1ccnc(C(=O)N[C@H]2CC[C@H](O)C2)n1 [Compound 305, N-((1S,3S)-3-hydroxycyclopentyl)-4-(1-methyl-1H-imidazol-5-yl)pyrimidine-2-carboxamide]
7.91	8.27	Cn1cncc1-c1nc(C(=O)N[C@H]2CC[C@H](OC(F)(F)F)CC2)cc(C2CCOCC2)n1 [Compound 334, 2-(1-methyl-1H-imidazol-5-yl)-6-(tetrahydro-2H-pyran-4-yl)-N-((1r,4r)-4-(trifluoromethoxy)cyclohexyl)pyrimidine-4-carboxamide]
5.97	5.30	O=C(Nc1ccc(C(F)F)nc1)c1nccc(-c2cncs2)n1 [Compound 150, N-(6-(difluoromethyl)pyridin-3-yl)-4-(thiazol-5-yl)pyrimidine-2-carboxamide]
